The target in experiment [1] is T1, Acetylcholinesterase (Homo sapiens, UniProt P22303).
Description: Inhibition of acetylcholinesterase (AChE) of human erythrocytes
The next experiment deals with Cholinesterase (Homo sapiens, UniProt P06276).
Experiment [2] concerns the target T1, Acetylcholinesterase. This is another data set of the same source.
Description: Inhibition constant determined against Acetylcholinesterase (AChE) receptor.

Each structure is given as a SMILES string.

Chain of Cholinesterase (P06276 whole entry): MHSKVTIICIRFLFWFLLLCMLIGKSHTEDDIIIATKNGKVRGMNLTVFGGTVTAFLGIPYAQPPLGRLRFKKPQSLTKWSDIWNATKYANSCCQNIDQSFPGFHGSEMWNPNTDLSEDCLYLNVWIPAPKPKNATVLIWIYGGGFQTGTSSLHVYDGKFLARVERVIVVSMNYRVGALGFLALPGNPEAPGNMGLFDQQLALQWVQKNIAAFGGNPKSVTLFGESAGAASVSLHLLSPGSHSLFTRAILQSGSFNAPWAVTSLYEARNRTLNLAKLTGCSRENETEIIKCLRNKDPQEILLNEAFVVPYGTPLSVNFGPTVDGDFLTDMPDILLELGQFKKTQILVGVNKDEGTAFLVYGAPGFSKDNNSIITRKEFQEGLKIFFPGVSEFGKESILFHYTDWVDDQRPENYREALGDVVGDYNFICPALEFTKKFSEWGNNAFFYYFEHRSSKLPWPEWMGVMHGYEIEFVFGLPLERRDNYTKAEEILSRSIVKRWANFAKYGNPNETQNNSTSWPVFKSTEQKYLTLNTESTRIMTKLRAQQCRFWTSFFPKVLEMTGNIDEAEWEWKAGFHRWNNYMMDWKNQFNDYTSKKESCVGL
T1 sequence (P22303 whole entry): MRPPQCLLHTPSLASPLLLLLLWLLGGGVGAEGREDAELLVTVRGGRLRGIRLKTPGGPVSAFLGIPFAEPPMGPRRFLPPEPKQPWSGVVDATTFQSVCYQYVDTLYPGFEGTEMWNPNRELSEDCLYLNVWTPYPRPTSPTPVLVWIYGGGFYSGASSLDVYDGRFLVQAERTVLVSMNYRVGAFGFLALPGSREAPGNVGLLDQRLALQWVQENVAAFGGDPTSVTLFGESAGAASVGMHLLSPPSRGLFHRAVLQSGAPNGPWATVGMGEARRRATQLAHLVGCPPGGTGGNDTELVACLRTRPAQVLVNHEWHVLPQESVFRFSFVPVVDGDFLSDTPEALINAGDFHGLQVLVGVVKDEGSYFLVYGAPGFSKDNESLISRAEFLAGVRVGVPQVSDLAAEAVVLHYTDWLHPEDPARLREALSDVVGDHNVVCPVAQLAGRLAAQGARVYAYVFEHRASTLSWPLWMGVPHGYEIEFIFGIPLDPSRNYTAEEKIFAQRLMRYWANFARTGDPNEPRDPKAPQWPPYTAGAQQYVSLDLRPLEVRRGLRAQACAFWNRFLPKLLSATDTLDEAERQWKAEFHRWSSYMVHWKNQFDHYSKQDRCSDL

The IC50 is the midpoint of a concentration-inhibition curve. On to `NCCCCCCNCCSSCCNCCCCCCN`, for which the IC50 was 501 µM against Acetylcholinesterase [1] and 646 µM at Cholinesterase. The matching figures for `COc1ccccc1CNCCCCCC(=O)N(C)CCCCCCCCN(C)C(=O)CCCCCNCc1ccccc1OC`: 0.309 µM and 6.03 µM. For the molecule `COc1ccccc1CNCCCCCCNCCCCCNCCCCCCNCc1ccccc1OC`, the IC50 on Acetylcholinesterase [1] is 7.24 µM; against Cholinesterase, 8.71 µM. The matching figures for `COc1ccccc1CNCCCCCC(=O)NCCCCCCCCNC(=O)CCCCCNCc1ccccc1OC`: 1.86 µM and 11.5 µM.

With `COc1ccccc1CNCCCCCCNCCCCCCNCCCCCCNCc1ccccc1OC`, the IC50 against Acetylcholinesterase [1] was 6.46 µM; against Cholinesterase it was 1.38 µM. On to `COc1ccccc1CNCCCCCCNCCCCCCCNCCCCCCNCc1ccccc1OC`, for which the IC50 against Cholinesterase is 3.72 µM.

On to `COc1ccccc1CNCCCCCCNCCSSCCNCCCCCCNCc1ccccc1OC` [BENEXTRAMINE], for which the IC50 on Acetylcholinesterase [1] is 7.24 µM; against Cholinesterase, 6.17 µM. The Ki is the equilibrium dissociation constant of an inhibitor or competing ligand from its target. Consider `COc1ccccc1CN(C)CCCCCC(=O)N(C)CCCCCCCCN(C)C(=O)CCCCCN(C)Cc1ccccc1OC` [CAPROCTAMINE], for which the IC50 on Acetylcholinesterase [1] is 0.17 µM; against Cholinesterase, 11.7 µM. For the same molecule, on Acetylcholinesterase [2], the Ki amounted to 0.000104 µM. On Cholinesterase, `COc1ccccc1CNCCCCCCNCCCCCCCCNCCCCCCNCc1ccccc1OC` [METHOCTRAMINE] gave an IC50 of 0.977 µM. In other words, the sub-micromolar range.

The values are drawn from ChEMBL document CHEMBL1131149, “Acetylcholinesterase noncovalent inhibitors based on a polyamine backbone for potential use against Alzheimer's disease” (J Med Chem, 1998).
